Test results: BigSolDB 2.1

Cc1ccc(C(=O)O)cc1
solubility (mole fraction)
Details	278.15 K	283.15 K	288.15 K	293.15 K	298.15 K	303.15 K	308.15 K	313.15 K	318.15 K	323.15 K
in acetone	0.0354	0.041	0.0469	0.0544	0.062	0.0728	0.0838	0.0943	0.11	0.125
in acetonitrile	0.00596	0.0068	0.00776	0.0087	0.00976	0.0112	0.0127	0.0146	0.0163	0.0187
in ethanol	0.0272	0.0308	0.0346	0.0396	0.0442	0.05	0.0549	0.0603	0.0684	0.0765
in isopropanol	0.0397	0.0437	0.0488	0.0528	0.0588	0.0648	0.0715	0.0779	0.0868	0.0959
in methanol	0.0354	0.041	0.0485	0.0568	0.0636	0.0744	0.0865	0.0999	0.115	0.132
in n-butanol	0.0359	0.0396	0.0444	0.051	0.0578	0.0651	0.0735	0.0836	0.094	0.105
